Test results: article PMC5299686, “Betanodavirus-like particles enter host cells via clathrin-mediated endocytosis in a cholesterol-, pH- and cytoskeleton-dependent manner” (Veterinary Research, 2017)
Like-named read-outs stand apart in the source and are kept apart here.

How the values were obtained:
SB cells = experiment: Cytotoxicity assay (CellTiter 96 AQueous One Solution Cell Proliferation Assay)
Protocol: To optimize the working concentration of the inhibitors, the cytotoxicity of the drugs to SB cells were evaluated. SB cells grown in 96-well plates were treated with the inhibitors at different concentrations for 4 h. Then cell viability was assayed using CellTiter 96® AQueous One Solution Cell Proliferation Assay (Promega, USA) according to the manufacturer’s instructions.

RBS entry into SB cells [1] = experiment: VLP (RBS) entry assay with inhibitor or siRNA perturbation, ELISA quantitation; type: cell-based, Lates calcarifer; settings: for change of RBS entry efficiency compared with untreated cells: 2 h entry
Protocol: (§1) Virus-like particles entry (invasion) assays were performed using SB or other indicated cells as described. In brief, the cells were seeded on coverslips in 12-well plates or cultured in 96-well plates for 18 or 24 h to achieve 70% confluence, pretreated with the indicated inhibitors at the indicated temperature (26 °C for fish cells, 28 °C for insect cells, and 37 °C for mammalian cells) and concentration (Table 1) for 1 h, and then incubated with RBS or CGV in the presence of the inhibitors for 1 h on ice. After that, the cells were washed three times with pre-cooling PBS, shifted to 28 °C to start entry, and visualized directly by fluorescent microscopy for CGV entry kinetics, or fixed for IFA followed by fluorescent microscopy, or collected for ELISA at the indicated times. In the untreated (positive) or mock-infected (negative) controls, the cells were subjected to no inhibitor treatment or no VLP incubation respectively. The entry assay of each inhibitor was repeated at least three times.
Six wells of cells in a 96-well plate treated with the same condition in entry assays were washed thoroughly with PBS, lysed with 20 μL of lysis buffer in each well and combined as one sample. Endogenous β-actin was used as an internal normalization control for ELISA. Three-hundred microliters of 30-fold diluted lysate for VLP detection or 100-fold diluted lysate for β-actin detection were coated equally in three wells of a 96-well microtiter plate at 4 °C overnight, respectively. The plate was conducted to room temperature and washed three times with 200 μL PBS. After blocking with 5% bovine serum albumin (BSA) in PBS for 1 h at room temperature and washing three times (all washes below indicate triplicate washings) with 200 μL PBS containing 0.05% Tween20 (PBST), the plate was incubated with in-house produced mouse anti-VLP antiserum at a dilution of 1:2000 in PBS for 1 h. The plate was washed and peroxidase-conjugated goat anti-mouse IgG (Sigma) at a dilution of 1:3000 in PBS was added and incubated for 1 h. Following thorough washings (five times), 100 μL of OPD substrate (Sigma) was added and the color development was conducted at room temperature. The reaction was stopped by the addition of 4 M sulfuric acid and the absorbance at 492 nm was determined. The OD492 of each sample including treated and untreated cells was normalized with the corresponding OD492 of β-actin to obtain the relative VLP quantity. The entry efficiency was generated as the percentage of treated cells with incorporated VLP relative to that for untreated cells. The VLP entry efficiency of untreated cells was arbitrarily set as 100%. The data shown are the mean ± SD of the results from three independent experiments. Statistical differences of VLP content from different groups were assessed by paired Student’s t tests. Numerical results are presented as mean ± SD with 95% confidence intervals and p < 0.05 was considered statistically significant (*, p < 0.05; **, p < 0.01).

RBS entry into SB cells [2] = experiment: VLP (RBS) entry assay, IFA and fluorescent microscopy; type: cell-based, Lates calcarifer; settings: at the working concentrations (CPZ 1 to 70 μM; dynasore 1, 10, 80 μM; siRNA 48 h post-transfection)
Protocol: (§2) Virus-like particles entry (invasion) assays were performed using SB or other indicated cells as described. In brief, the cells were seeded on coverslips in 12-well plates or cultured in 96-well plates for 18 or 24 h to achieve 70% confluence, pretreated with the indicated inhibitors at the indicated temperature (26 °C for fish cells, 28 °C for insect cells, and 37 °C for mammalian cells) and concentration (Table 1) for 1 h, and then incubated with RBS or CGV in the presence of the inhibitors for 1 h on ice. […]
(§3) Cells were washed twice with PBS, fixed with 4% paraformaldehyde for 15 min, permeated with 0.2% Triton X-100 for 10 min, and then blocked with 5% BSA for 1 h. […] For identification of entry and trafficking of RBS in cells, images were acquired using a laser scanning confocal fluorescence microscope (TCS-SP5, Leica Microsystems Wetzlar GmbH Inc., Germany). Images were acquired randomly from 5 different fields of view per coverslip to get more than 20 cells and to allow observing the signals of targets and nuclei fluorescence by Leica Application Suite (2.6.0 build 7266). […] The results are expressed as the mean ± standard deviation (SD).

CGV entry into SB cells = experiment: CGV entry assay, ELISA quantitation; type: cell-based, Lates calcarifer
Protocol: as §1, with “In the untreated (positive) or mock-infected (negative) controls, the cells were subjected to no inhibitor treatment or no VLP incubation respectively. The entry assay of each inhibitor was repeated at least three times.” left out
Six wells of cells in a 96-well plate treated with the same condition in entry assays were washed thoroughly with PBS, lysed with 20 μL of lysis buffer in each well and combined as one sample. […] The reaction was stopped by the addition of 4 M sulfuric acid and the absorbance at 492 nm was determined. The OD492 of each sample including treated and untreated cells was normalized with the corresponding OD492 of β-actin to obtain the relative VLP quantity. […] Statistical differences of VLP content from different groups were assessed by paired Student’s t tests. […]

RBS entry into GB cells = experiment: VLP entry assay and IFA on GB cells; type: cell-based, Epinephelus coioides; settings: GB cells pretreated with CPZ for 1 h
Protocol: as §2, §3

[3] = test system: RBS entry into SSN-1 cells; experiment: VLP entry assay and IFA on SSN-1 cells; type: cell-based, Channa striatus; settings: SSN-1 cells pretreated with CPZ for 1 h
Protocol: as §2, §3

[4] = Lates calcarifer, read-out: RBS entry blocked (inhibited)
[5] = 40 μM inhibitor alone, SB cells, ELISA
[6] = 1 mM inhibitor, SB cells, ELISA

## C=C1[C@@H](C)[C@H]2[C@H](Cc3ccccc3)NC(=O)[C@]23[C@H](OC(C)=O)/C=C/[C@@](C)(O)C(=O)[C@@H](C)C/C=C/[C@H]3[C@@H]1O [CytD, cytochalasin D]
SB cells; SB cells, 4 h treatment
  MC, max concentration that can be used without cytotoxicity: 77.8 µM
RBS entry into SB cells [1]; [4]
  inhibition at 1 µM: 83.2%
  inhibition at 10 µM: 96%
  inhibition at 77.8 µM: 96.5%

## CN(C)C[C@H](O)Cn1c2ccc(Br)cc2c2cc(Br)ccc21 (racemic) [wiskostatin]
SB cells; SB cells, 4 h treatment
  MC, max concentration that can be used without cytotoxicity: 50 µM
RBS entry into SB cells [1]; [4]
  inhibition at 1 µM: 77.9%
  inhibition at 10 µM: 84.6%
  inhibition at 50 µM: 94.2%

## Oc1ccc2ccccc2c1SSc1c(O)ccc2ccccc12 [IPA-3]
SB cells; SB cells, 4 h treatment
  MC, max concentration that can be used without cytotoxicity: 40 µM
RBS entry into SB cells [1]; [5]
  change of RBS entry efficiency compared with untreated cells: no statistically significant change

## O=c1c(-c2ccc(O)cc2)coc2cc(O)cc(O)c12 [genistein]
SB cells; SB cells, 4 h treatment
  MC, max concentration that can be used without cytotoxicity: 100 µM
RBS entry into SB cells [1]; 100 μM inhibitor, SB cells, ELISA
  entry quantity of VLP compared with mock-treated control: 88%

## COC(=O)Nc1nc2ccc(C(=O)c3cccs3)cc2[nH]1 [nocodazole]
SB cells; SB cells, 4 h treatment
  MC, max concentration that can be used without cytotoxicity: 160 µM
RBS entry into SB cells [1]; [4]
  inhibition at 1 µM: 59.4%
  inhibition at 5 µM: 74%
  inhibition at 50 µM: 81.3%

## COC[C@H]1OC(=O)c2coc3c2[C@@]1(C)C1=C(C3=O)[C@@H]2CCC(=O)[C@@]2(C)C[C@H]1OC(C)=O [wortmannin]
SB cells; SB cells, 4 h treatment
  MC, max concentration that can be used without cytotoxicity: 50 µM
RBS entry into SB cells [1]; [4]
  inhibition at 1 µM: -1.4%
  inhibition at 10 µM: 0.82%
  inhibition at 50 µM: 23%

## O=C(N/N=C/c1ccc(O)c(O)c1)c1cc2ccccc2cc1O [dynasore]
SB cells; SB cells, 4 h treatment
  MC, max concentration that can be used without cytotoxicity: 800 µM
RBS entry into SB cells [1]; 1 μM inhibitor, SB cells, ELISA
  VLP entry efficiency (untreated cells = 100%): 71.4%
RBS entry into SB cells [1]; 10 μM inhibitor, SB cells, ELISA
  VLP entry efficiency (untreated cells = 100%): 48.5%
RBS entry into SB cells [1]; 80 μM inhibitor, SB cells, ELISA
  VLP entry efficiency (untreated cells = 100%): 40%
RBS entry into SB cells [2]
  fluorescent signal of RBS in cells (IFA) compared with untreated cells: significantly reduced

## CC(=O)c1c(O)c(C)c(O)c(Cc2c(O)c3c(c(C(=O)/C=C/c4ccccc4)c2O)OC(C)(C)C=C3)c1O [rottlerin]
SB cells; SB cells, 4 h treatment
  MC, max concentration that can be used without cytotoxicity: 40 µM
RBS entry into SB cells [1]; [5]
  change of RBS entry efficiency compared with untreated cells: no statistically significant change

## Cl.N [NH4Cl, ammonia chloride]
SB cells
  MC, max concentration that can be used without cytotoxicity: 50 000 μM
RBS entry into SB cells [1]; 50 mM inhibitor, SB cells, ELISA
  VLP entry efficiency (untreated cells = 100%): 25%

## methyl-β-cyclodextrin [MβCD]
RBS entry into SB cells [1]; 0.5 mM inhibitor, SB cells, ELISA
  RBS entry blocked (inhibited): 63.6%
RBS entry into SB cells [1]; [6]
  RBS entry blocked (inhibited): 59.5%
RBS entry into SB cells [1]; 2 mM inhibitor, SB cells, ELISA
  RBS entry blocked (inhibited): 74.4%

## O=S(=O)(c1cccc2c(I)cccc12)N1CCCNCC1 [ML-7]
SB cells; SB cells, 4 h treatment
  MC, max concentration that can be used without cytotoxicity: 40 µM
RBS entry into SB cells [1]; [5]
  change of RBS entry efficiency compared with untreated cells: no statistically significant change

## CCN(CC)CCCC(C)Nc1nc(C)cc(Nc2ccc3nc(C)cc(N)c3c2)n1 (centres unmarked) [NSC23766]
SB cells; SB cells, 4 h treatment
  MC, max concentration that can be used without cytotoxicity: 40 µM
RBS entry into SB cells [1]; [5]
  change of RBS entry efficiency compared with untreated cells: no statistically significant change

## CC(C)CCC[C@@H](C)[C@H]1CC[C@H]2[C@@H]3CC=C4C[C@@H](O)CC[C@]4(C)[C@H]3CC[C@]12C [cholesterol]
CGV entry into SB cells; SB cells not treated with MβCD
  effect of cholesterol supplement on CGV entry: did not enhance the entry of CGV
CGV entry into SB cells; SB cells pretreated with 5 mM MβCD, then exogenous cholesterol 0.8 μg/μL for 1 h
  CGV entry efficiency after cholesterol replenishment compared with mock-treated cells: 57%

## CCN(CC)CCCC(C)Nc1ccnc2cc(Cl)ccc12 (centres unmarked) [chloroquine]
SB cells; SB cells, 4 h treatment
  MC, max concentration that can be used without cytotoxicity: 1000 µM
RBS entry into SB cells [1]; [6]
  RBS entry blocked (inhibited): totally block
RBS entry into SB cells [1]; [4]
  inhibition at 10 µM: > 70%

## CN(C)CCCN1c2ccccc2Sc2ccc(Cl)cc21 [CPZ, chlorpromazine]
SB cells; SB cells, 4 h treatment
  MC, max concentration that can be used without cytotoxicity: 700 µM
RBS entry into SB cells [1]; 7 μM inhibitor alone, SB cells, ELISA
  change of RBS entry efficiency compared with untreated cells: dramatically reduced
RBS entry into SB cells [1]; 70 μM inhibitor, SB cells, ELISA
  VLP entry efficiency (untreated cells = 100%): 5%
RBS entry into SB cells [1]; [4]
  inhibition at 1 µM: 70%
  inhibition at 7 µM: 80%
  inhibition at 70 µM: 95%
RBS entry into SB cells [2]
  fluorescent signal of RBS in cells (IFA) compared with untreated cells: significantly reduced
RBS entry into GB cells
  VLP entry efficiency in treated compared with untreated samples (IFA): dramatically decreased
[3]
  VLP entry efficiency in treated compared with untreated samples (IFA): dramatically decreased
